According to paper PMC9246773, “Assessing the Activity of Antimicrobial Peptides Against Common Marine Bacteria Located in Rotifer (Brachionus plicatilis) Cultures” (Probiotics and Antimicrobial Proteins, 2022):
Like-named read-outs stand apart in the source and are kept apart here. No end group written: not given here.

Assays:
Format in all cases: cell-based
Vibrio alginolyticus [1] = tested on: Vibrio alginolyticus
Protocol: (§1) A range of bacterial species with the potential to be transferred to developing fish larvae as pathogens or probiotics were selected for use in the study (Table 2). Bacterial isolates were stored at −80 °C and thawed, and 25 µL of the isolates was spread onto marine salt agar (MSA) media. All isolates were incubated at 25 °C for 18 h to reach mid-log growth phase. All isolates were sub-cultured and identified using mass spectrometry (MALDI-TOF) using the BioTyper and MBT 8468 library (Bruker Pty Ltd). The isolate Tenacibaculum discolor was plated on Anacker and Oradal’s marine (AOM) media, incubated for 48 h and identified using the aforementioned method. Bacterial isolates were suspended in sterile saline (0.75% NaCl w/v) to 0.5 McFarland standard. […] The bacterial isolates T. discolor and Pseudoalteromonas sp. require marine salts to grow and were not added to MHB (0‰). The isolate T. discolor requires low nutrients to grow, therefore, a separate MHB (25‰) was prepared at a diluted ratio of 1 part MHB and 7 parts artificial seawater (25‰).
(§2) The protocol was followed to determine the minimum inhibitory concentration (MIC) of the selected peptides. Two MIC assays were performed, firstly to determine whether each peptide precipitated in MHB and thereby required acetic acid adjustments (supplementary materials) and secondly, to determine the antimicrobial activity of each peptide in artificial seawater (25‰). Peptide stock solutions (1.3 mg mL^−1) were made by diluting the peptides in sterile deionised water. MHB was made with deionised water to reach a concentration of approaching 0‰ and artificial sea salts (Sigma-Aldrich® S9883) to reach a salinity of 25‰.
(§3) A broth microdilution protocol was followed to test whether the AMPs precipitated in MHB. The isolates T. discolor and Pseudoalteromonas were excluded from this assay because they required marine salts for growth. The peptides HHC10 and HHC36 previously required acetic acid adjustments according to [63] and were not trialled in this assay. To test if peptides required acetic acid, each peptide was diluted 1:2 in acetic acid (0.02% acetic acid w/v, containing 0.4% BSA) solution. In a 96-well polypropylene microtitre plates (Costar® 3879), 100 µL of this peptide stock was added to the first well for each bacterial isolate tested and serially diluted 2-fold with acetic acid (0.01% acetic acid w/v, containing 0.2% BSA). From each well, 10 µL of each peptide concentration was added to the corresponding wells of a new 96-well microtitre plate. From each of the bacterial suspensions in MHB (0‰), 90 µL was added to each well. […] From each of the bacterial suspensions in MHB (0‰), 50 µL was added to each well. All peptide concentrations ranged from 0.125 - 65µg mL^-1 and the bacterial suspension in each well was approximately 5 × 10^5 CFU mL^-1. Antimicrobial peptides that have an MIC value two or more dilutions higher in the assay with no acetic acid, compared to the assay with acetic acid, require acetic acid adjustments. The 96-well plates were incubated at 25 °C and read at 24 and 48 hours. The MIC was visually determined using a Sensititre™ Vizion™ Digital MIC Viewing System (Thermo Scientific™), and the lowest AMP concentration that had no bacterial growth was recorded as the MIC after 48 hours. Each bacterium was trialled in duplicate.

Vibrio rotiferianus [2] = tested on: Vibrio rotiferianus
Protocol: as §1, §2, §3

Shewanella sp. [3] = tested on: Shewanella sp.
Protocol: as §1, §2, §3

[4] = tested on: Vibrio harveyi (ATCC 35084)
Protocol: as §1, §2, §3

Vibrio harveyi [5] = tested on: Vibrio harveyi
Protocol: as §1, §2, §3

Vibrio scophthalmi [6] = tested on: Vibrio scophthalmi
Protocol: as §1, §2, §3

[7] = tested on: Escherichia coli (ATCC 25922)
Protocol: as §1, §2, §3

Vibrio alginolyticus [8] = tested on: Vibrio alginolyticus; remark: listed apart in the source
Protocol: as §1, §2
(§4) Once the acetic acid requirement for each peptide was determined (Table 3), the antimicrobial activity of each peptide was tested at a salinity of 0‰ and 25‰ for all bacterial isolates. A stock solution for peptides that required acetic acid was prepared by a 1:2 dilution in acetic acid (0.02% acetic acid w/v, containing 0.4% BSA) solution. In a 96-well polypropylene microtitre plates (Costar® 3879), 100 µL of this peptide stock was added to the first well for each bacterial isolate tested and serially diluted twofold with acetic acid (0.01% acetic acid w/v, containing 0.2% BSA). From each well, 10 µL of each peptide concentration was added to the corresponding wells of a new 96-well microtitre plate. From each of the bacterial suspensions (0‰), 90 µL was added to each well. […] Twofold serial dilutions were made with MHB (0‰). From each of the bacterial suspensions (0‰), 50 µL was added to each well. The same method was followed for testing peptides in MHB at 25‰. All peptide concentrations ranged from 0.125 to 65 µg mL^−1, and the bacterial suspension in each well was approximately 5 × 10^5 CFU mL^−1. The different salinities were used to compare any differences in antimicrobial activity in 0‰ and 25‰ water. […] Each bacterium was trialled in duplicate.

Tenacibaculum discolor = tested on: Tenacibaculum discolor
Protocol: as §1, §2, §4

Vibrio rotiferianus [9] = tested on: Vibrio rotiferianus; remark: listed apart in the source
Protocol: as §1, §2, §4

Shewanella sp. [10] = tested on: Shewanella sp.; remark: listed apart in the source
Protocol: as §1, §2, §4

[11] = tested on: Vibrio harveyi (ATCC 35084); remark: listed apart in the source
Protocol: as §1, §2, §4

Vibrio harveyi [12] = tested on: Vibrio harveyi; remark: listed apart in the source
Protocol: as §1, §2, §4

Vibrio scophthalmi [13] = tested on: Vibrio scophthalmi; remark: listed apart in the source
Protocol: as §1, §2, §4

[14] = tested on: Escherichia coli (ATCC 25922); remark: listed apart in the source
Protocol: as §1, §2, §4

Pseudoalteromonas sp. = tested on: Pseudoalteromonas sp.
Protocol: as §1, §2, §4

[15] = no acetic acid (peptide diluted 1:10 in MHB), MHB 0‰, 25 °C, MIC after 48 h, ca. 5 × 10^5 CFU mL^-1, duplicate
[16] = with acetic acid (0.01% acetic acid w/v, 0.2% BSA diluent), MHB 0‰, 25 °C, MIC after 48 h, ca. 5 × 10^5 CFU mL^-1, duplicate
[17] = MHB 0‰, acetic acid only for peptides requiring it, 25 °C, MIC after 48 h, ca. 5 × 10^5 CFU mL^-1, duplicate
[18] = MHB with artificial sea salts 25‰, acetic acid only for peptides requiring it, 25 °C, MIC after 48 h, ca. 5 × 10^5 CFU mL^-1, duplicate

With VLQIKKVLRLLL-NH2 [Peptide 3011] the “MIC V. alginolyticus, No acetic” value (Vibrio alginolyticus [1]; [15]) was 4.06 mg/L, the “MIC V. alginolyticus, Acetic” value (Vibrio alginolyticus [1]; [16]) was 4.06 mg/L and the “MIC V. rotiferianus, No acetic” value (Vibrio rotiferianus [2]; [15]) was 4.06 mg/L. For the same substance, the “MIC V. rotiferianus, Acetic” value (Vibrio rotiferianus [2]; [16]) was 4.06 mg/L, the “MIC Shewanella sp., No acetic” value (Shewanella sp. [3]; [15]) was 16.25 mg/L and the “MIC Shewanella sp., Acetic” value (Shewanella sp. [3]; [16]) was 16.25 mg/L. The “MIC V. harveyi ATCC 35084, No acetic” value [4, 15] was 8.13 mg/L, the “MIC V. harveyi ATCC 35084, Acetic” value [4, 16] was 16.25 mg/L and the “MIC V. harveyi, No acetic” value (Vibrio harveyi [5]; [15]) was 32.5 mg/L. The “MIC V. harveyi, Acetic” value (Vibrio harveyi [5]; [16]) was 16.25 mg/L, the “MIC V. scophthalmi, No acetic” value (Vibrio scophthalmi [6]; [15]) was 2.03 mg/L and the “MIC V. scophthalmi, Acetic” value (Vibrio scophthalmi [6]; [16]) was 4.06 mg/L. For the same substance, the “MIC E. coli ATCC 25922, No acetic” value [7, 15] was 8.13 mg/L, the “MIC E. coli ATCC 25922, Acetic” value [7, 16] was 16.25 mg/L and the “MIC V. alginolyticus, salinity 0‰” value (Vibrio alginolyticus [8]; [17]) was 4.06 mg/L. For the same substance, the “MIC V. alginolyticus, salinity 25‰” value (Vibrio alginolyticus [8]; [18]) was greater than 65 mg/L, the “MIC T. discolor, salinity 25‰” value (Tenacibaculum discolor; MHB (25‰) diluted 1 part MHB and 7 parts artificial seawater (25‰), 25 °C, MIC after 48 h, ca. 5 × 10^5 CFU mL^-1, duplicate) was greater than 65 mg/L and the “MIC V. rotiferianus, salinity 0‰” value (Vibrio rotiferianus [9]; [17]) was 4.06 mg/L. The “MIC V. rotiferianus, salinity 25‰” value (Vibrio rotiferianus [9]; [18]) was greater than 65 mg/L, the “MIC Shewanella sp., salinity 0‰” value (Shewanella sp. [10]; [17]) was 8.13 mg/L and the “MIC Shewanella sp., salinity 25‰” value (Shewanella sp. [10]; [18]) was greater than 65 mg/L. For the same substance, the “MIC V. harveyi ATCC 35084, salinity 0‰” value [11, 17] was 8.13 mg/L, the “MIC V. harveyi ATCC 35084, salinity 25‰” value [11, 18] was greater than 65 mg/L and the “MIC V. harveyi, salinity 0‰” value (Vibrio harveyi [12]; [17]) was 8.13 mg/L. The “MIC V. harveyi, salinity 25‰” value (Vibrio harveyi [12]; [18]) was greater than 65 mg/L, the “MIC V. scophthalmi, salinity 0‰” value (Vibrio scophthalmi [13]; [17]) was 1.02 mg/L and the “MIC V. scophthalmi, salinity 25‰” value (Vibrio scophthalmi [13]; [18]) was greater than 65 mg/L. For the same substance, the “MIC E. coli ATCC 25922, salinity 0‰” value [14, 17] was 16.25 mg/L, the “MIC E. coli ATCC 25922, salinity 25‰” value [14, 18] was greater than 65 mg/L and the “MIC Pseudoalteromonas sp., salinity 25‰” value (Pseudoalteromonas sp.; MHB with artificial sea salts 25‰, 25 °C, MIC after 48 h, ca. 5 × 10^5 CFU mL^-1, duplicate) was greater than 65 mg/L.

WVGVIIKWGLKL-NH2 [Peptide 3018] was tested, and the “MIC V. alginolyticus, Acetic” value (Vibrio alginolyticus [1]; 48 h) was 8.13 mg/L, the “MIC V. alginolyticus, No acetic” value (Vibrio alginolyticus [1]; 48 h) was 4.06 mg/L and the “MIC V. rotiferianus, Acetic” value (Vibrio rotiferianus [2]; 48 h) was 8.13 mg/L. The “MIC V. rotiferianus, No acetic” value (Vibrio rotiferianus [2]; 48 h) was 4.06 mg/L, the “MIC Shewanella sp., Acetic” value (Shewanella sp. [3]; 48 h) was 16.25 mg/L and the “MIC Shewanella sp., No acetic” value (Shewanella sp. [3]; 48 h) was 8.13 mg/L. The “MIC V. harveyi ATCC 35084, Acetic” value ([4]; ATCC 35084, 48 h) was 16.25 mg/L, the “MIC V. harveyi ATCC 35084, No acetic” value ([4]; ATCC 35084, 48 h) was 8.13 mg/L and the “MIC V. harveyi, Acetic” value (Vibrio harveyi [5]; 48 h) was 16.25 mg/L. For the same substance, the “MIC V. harveyi, No acetic” value (Vibrio harveyi [5]; 48 h) was 16.25 mg/L, the “MIC V. scophthalmi, Acetic” value (Vibrio scophthalmi [6]; 48 h) was 0.25 mg/L and the “MIC V. scophthalmi, No acetic” value (Vibrio scophthalmi [6]; 48 h) was 2.03 mg/L. For the same substance, the “MIC E. coli ATCC 25922, Acetic” value ([7]; ATCC 25922, 48 h) was greater than 65 mg/L, the “MIC E. coli ATCC 25922, No acetic” value ([7]; ATCC 25922, 48 h) was 16.25 mg/L and the “MIC V. alginolyticus, salinity 0‰” value (Vibrio alginolyticus [8]; 48 h) was 2.03 mg/L. For the same substance, the “MIC V. alginolyticus, salinity 25‰” value (Vibrio alginolyticus [8]; 48 h) was greater than 65 mg/L, the “MIC T. discolor, salinity 25‰” value (Tenacibaculum discolor; 48 h) was greater than 65 mg/L and the “MIC V. rotiferianus, salinity 0‰” value (Vibrio rotiferianus [9]; 48 h) was 8.13 mg/L. The “MIC V. rotiferianus, salinity 25‰” value (Vibrio rotiferianus [9]; 48 h) was greater than 65 mg/L, the “MIC Shewanella sp., salinity 0‰” value (Shewanella sp. [10]; 48 h) was 16.25 mg/L and the “MIC Shewanella sp., salinity 25‰” value (Shewanella sp. [10]; 48 h) was greater than 65 mg/L. The “MIC V. harveyi ATCC 35084, salinity 0‰” value ([11]; ATCC 35084, 48 h) was 32.5 mg/L, the “MIC V. harveyi ATCC 35084, salinity 25‰” value ([11]; ATCC 35084, 48 h) was greater than 65 mg/L and the “MIC V. harveyi, salinity 0‰” value (Vibrio harveyi [12]; 48 h) was 16.25 mg/L. For the same substance, the “MIC V. harveyi, salinity 25‰” value (Vibrio harveyi [12]; 48 h) was greater than 65 mg/L, the “MIC V. scophthalmi, salinity 0‰” value (Vibrio scophthalmi [13]; 48 h) was 1.02 mg/L and the “MIC V. scophthalmi, salinity 25‰” value (Vibrio scophthalmi [13]; 48 h) was greater than 65 mg/L. The “MIC E. coli ATCC 25922, salinity 0‰” value ([14]; ATCC 25922, 48 h) was 65 mg/L, the “MIC E. coli ATCC 25922, salinity 25‰” value ([14]; ATCC 25922, 48 h) was greater than 65 mg/L and the “MIC Pseudoalteromonas sp., salinity 25‰” value (Pseudoalteromonas sp.; 48 h) was greater than 65 mg/L.
